Laboratory results: PubChem BioAssay (NCI)
Where “and” joins values, the source holds several entries; their conditions need not be identical. Identical values can stand only once.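 Grown in 96-well plates, cells were treated for 48 hours with each compound at five concentrations. Insufficient inhibition: endpoint recorded as highest concentration tested. GI50 marks 50% less growth. TGI marks complete inhibition of growth.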

Columns and labels:
Test in all cases: growth of human tumour cells (NCI), 48 h
MALME-3M melanoma = system: MALME-3M melanoma
HL-60(TB) leukemia = system: HL-60(TB) leukemia
UACC-62 melanoma = system: UACC-62 melanoma
CAKI-1 renal = system: CAKI-1 renal
SNB-75 CNS = system: SNB-75 CNS
HCC-2998 colon = system: HCC-2998 colon
A498 renal = system: A498 renal

Row | SMILES | TGI (MALME-3M melanoma) | TGI (HL-60(TB) leukemia) | TGI (UACC-62 melanoma) | TGI (CAKI-1 renal) | TGI (SNB-75 CNS) | GI50 (MALME-3M melanoma) | GI50 (HL-60(TB) leukemia) | GI50 (HCC-2998 colon) | TGI (HCC-2998 colon) | GI50 (UACC-62 melanoma) | GI50 (CAKI-1 renal) | GI50 (SNB-75 CNS) | GI50 (A498 renal) | TGI (A498 renal)
1 | NC(=S)c1cccc(C2Nc3ccccc3O2)c1 (stereo unspecified) | > 100 µM | > 100 µM | 96.2 µM | > 100 µM | > 100 µM | – | – | – | – | – | – | – | – | –
2 | COc1cc(N)c(Cl)cc1C(=O)N[C@@H]1CCN(CCCOc2ccc(F)cc2)C[C@@H]1OC | > 100 µM | > 100 µM | > 100 µM | > 100 µM | > 100 µM | > 100 µM | 82.4 µM | 35.2 µM | > 100 µM | 67.6 µM | > 100 µM | > 100 µM | – | –
3 | COc1ccc(N=c2nc3sc4cc(Cl)ccc4n3c(N)c2C#N)cc1 | 7.42 µM | > 94.9 µM | > 38.5 µM | 78.3 µM | > 100 µM | 2.25 µM | 11.4 µM | – | – | 3.35 µM | 8.05 µM | 3.4 µM | 2.64 µM | 7.05 µM
4 | Cn1cc(-c2csc(-c3ccc(Cl)cc3)n2)c2cccnc21 | 42.2 µM | 47.5 µM | 29.8 µM | 25.6 µM | 54.3 µM | 14.8 µM | 10.4 µM | 14.6 µM | 28.8 µM | 10.5 µM | 6.99 µM | 20 µM | – | –
5 | O=C(O)C(Cc1ccccc1)N1C(=O)/C(=C/C(Cl)=C/c2ccc([N+](=O)[O-])cc2)SC1=S (stereo unspecified) | 4.82 µM | – | 4.85 µM | 5.09 µM | 5.37 µM | 2.13 µM | – | 1.96 µM | 3.5 µM | 2 µM | 2.28 µM | 1.96 µM | 1.65 µM | 3.24 µM
6 | COc1cc(C=NCC(=O)CSC(c2ccccc2)c2ccccc2)ccc1O | 22.4 µM | 27.6 µM | 27.5 µM | 43.2 µM | 25.9 µM | 6.11 µM | 11.4 µM | 3.6 µM | 16.5 µM | 13.6 µM | 16.6 µM | 13 µM | – | –
7 | C=C(CN1CCN(c2ccccn2)CC1)c1ccc(C(=O)Nc2ccccc2N)cc1 | – | > 50 µM | 9.99 µM | 5.03 µM | 4.68 µM | – | 2.2 µM | 0.664 µM | 1.94 µM | 1.41 µM | 1.19 µM | 1.48 µM | – | –
8 | CC(=O)/C(=N\N=C(N)N)c1ccccc1 | > 100 µM | – | > 100 µM | > 100 µM | > 100 µM | – | – | – | > 100 µM | – | – | – | – | > 100 µM
9 | COC(=O)c1c(C(=O)O)c(-c2ccccc2)c(-c2ccccc2)c(-c2ccccc2)c1-c1ccccc1 | > 100 µM | > 100 µM | > 100 µM | > 100 µM | > 100 µM | > 100 µM | > 100 µM | – | – | > 100 µM | > 100 µM | 47.6 µM | – | –
10 | CCOC(=O)c1sc(NC(=O)COc2ccc(/C=C3\CCc4cc(OC)ccc4C3=O)cc2)nc1C | 12.6 µM | 0.949 µM | 23.4 µM | 31.6 µM | 24.3 µM | 1.13 µM | 0.294 µM | 1.47 µM | 4.38 µM | 11.3 µM | 11.1 µM | 6.73 µM | 13.2 µM | 30.1 µM
11 | O=C(OCC1=CC(=O)c2ccccc2C1=O)c1ccccc1 | 3.12 µM | 14.1 µM | 9.02 µM | 22.8 µM | 29.4 µM | 1.43 µM | 3.72 µM | 6.14 µM | 18.8 µM | 3.27 µM | 10.4 µM | 14.7 µM | 18.6 µM | 36.8 µM
12 | CC(=O)c1nc(-c2ccc(C[C@@H](CNC(=O)CN(C)C)NC(=O)c3ccc(OC(C)C)c(Cl)c3)cc2)cn1C | 18.2 µM | 0.0719 µM | 19.1 µM | – | 13.9 µM | 0.277 µM | 0.0223 µM | 0.134 µM | 21.8 µM | 0.0587 µM | – | 0.0761 µM | 0.0407 µM | 2.04 µM
13 | COC(=O)N[C@@H](C)CNc1nccc(-c2cn(C(C)C)nc2-c2cc(Cl)cc(NS(C)(=O)=O)c2F)n1 | – | > 57.9 µM | – | > 100 µM | > 100 µM | – | 0.741 µM | 30.9 µM | > 100 µM | – | 4.95 µM | 0.51 µM | 0.336 µM | > 100 µM
14 | O=C1c2ccccc2-c2c1c1ccccc1c(=O)n2CCNCCNCCNCCNCCn1c2c(c3ccccc3c1=O)C(=O)c1ccccc1-2 | – | 2.08 µM | 1.71 µM | 2.93 µM | – | – | 0.216 µM | – | – | 0.447 µM | 0.26 µM | – | – | –
15 | CSC(=S)NCc1cn(C)c2ccccc12 | 92.4 µM | – | 42.7 µM | 61.3 µM | > 100 µM | 24.6 µM | – | 25.1 µM | 98.7 µM | 20.1 µM | 20.8 µM | 51.4 µM | 12.8 µM | 29.2 µM
16 | COc1ccc(-c2cn3ccnc3c(-c3ccc(Cl)cc3)n2)cc1 | – | > 100 µM | > 100 µM | 11 µM | > 100 µM | – | 5.14 µM | – | – | 19.4 µM | 2.9 µM | 6.85 µM | 2.31 µM | 9.87 µM
17 | C[C@]12CCC3c4ccc(O)cc4CCC3C1CC[C@@H]2NC(=O)/C=C/c1ccc(O)c(O)c1 (stereo partly specified) | 70.9 µM | – | 24.4 µM | 48.4 µM | 9.36 µM | 25.1 µM | – | 15.6 µM | 30.3 µM | 11.5 µM | 16.4 µM | 2.66 µM | – | –
18 | CCCC(=O)Nc1cc(/C=C/C(=O)N2C[C@@H]3C[C@]34C2=CC(=O)c2[nH]cc(C)c24)n(C)c1 | 0.337 µM | – | 0.352 µM and 0.222 µM | 0.571 µM and 0.529 µM | 1.21 µM and 0.248 µM | – | – | 0.114 µM | 0.687 µM and 0.37 µM | 0.0972 µM | 0.0901 µM | 0.061 µM | – | 0.689 µM and 0.478 µM
19 | CC(C)(O)c1cc(Nc2cc(Oc3cn(C4CC4)nc3C3CCOCC3)ccn2)ccn1 | > 100 µM | > 100 µM | – | > 100 µM | > 100 µM | > 100 µM | 27.6 µM | > 100 µM | > 100 µM | – | > 100 µM | 22 µM | 63.1 µM | > 100 µM
20 | OC(Cc1cccc2ccccc12)CN1CCC(c2ccccc2)CC1 (stereo unspecified) | – | 41.2 µM | 28.9 µM | 24.5 µM | 25.3 µM | – | – | – | 10.8 µM | – | – | – | – | –
21 | Cc1cc(C)nc(NC(=O)COc2ccc(Cl)cc2)c1 | > 100 µM | – | > 100 µM | > 100 µM | > 100 µM | – | – | – | – | – | – | – | – | > 100 µM
